Entries after “also recorded” stand apart in the source; their conditions may differ.
Legend:
[1] = tested on: human primary hepatocytes; assay: NAD+ content in human primary hepatocytes (LCMS/MS); type: cell-based; conditions: 0.5 μM and 5 μM, FIG. 1
Experimental: Primary hepatocytes are treated with different concentrations of a compound of Formula (I), Formula (Ia), Formula (Ib), Formula (II), or Formula (III), or a pharmaceutically acceptable salt thereof, or MEHP (control) after seeding. The compound is replaced every 24 hours, and then cells are directly harvested and lysed to detect NAD^+ content through LC MS/MS (liquid chromatography mass spectrometry/mass spectroscopy).
The NAD^+ concentration or content was determined in human primary hepatocytes treated with Compound 4. Vehicle (NT) was used as a control.
At least three experiments were run treating primary hepatocytes with different concentrations of Compound 4 (0.5 μM and 5 μM) after 48 hrs from seeding. Compound 4 was replaced every 24 hrs, and then cells were directly harvested and lysed with ACN/H2O (ratio 5:1). LCMS/MS was used to detect and measure NAD^+ concentration/content. […] (FIG. 1)
The NAD^+ concentration or content was determined in human primary hepatocytes treated with Compound 1 and MEHP, a known ACMSD inhibitor. MEHP was used as a control.
At least three experiments were run treating primary hepatocytes with different concentrations of Compound 1 (0.5 μM, 5 μM, and 50 μM) after 48 hrs from seeding. Compound 1 was replaced every 24 hrs, and then cells were directly harvested and lysed with ACN/H2O (ratio 5:1). […]

AML-12 cells = assay: Cytotoxicity (LDH release, ATP level) in AML-12 cells; type: cell-based, mouse; conditions: 10 nM to 300 μM; 4 hrs; DMSO 1%
Experimental: (§1) HePG2 and AML-12 cells are seeded and a dose-response of the compound is performed at various concentrations. Cells are stimulated and the supernatant is used to perform LDH release as a measure of necrosis while the cells are lysed to detect ATP levels for determining cell viability.
(§2) Cytotoxicity: 20000 HePG2 and AML-12 cells were seeded in 96 well plate (Viewplate PerkinElmer). Dose-response of the compound in Table 2 was performed using HP D300 digital dispenser, ranging from 10 nM to 300 μM with constant DMSO 1% in medium. Cells were stimulated for 4 hrs at 37° C.; the supernatant was used to perform LDH release (Cytotox-one, Promega) as a measure of necrosis while the cells were lysed to detect ATP level for determining cell viability (Celltiter-glo, Promega) according to manufacturer's instructions.

HePG2 cells = assay: Cytotoxicity (LDH release, ATP level) in HePG2 cells; type: cell-based; conditions: 10 nM to 300 μM; 4 hrs; DMSO 1%
Experimental: as §1, §2

hERG potassium channel = hERG potassium channel (Homo sapiens (Human), UniProt Q12809); assay: Predictor hERG assay, fluorescence polarization tracer displacement; conditions: hERG channel affinity binding; DMSO 1%
Text: The Predictor hERG assay kit is stably transfected with hERG potassium channel and a high-affinity red fluorescent hERG channel ligand and is used for the determination of hERG channel affinity binding of compounds of Formula (I), Formula (Ia), Formula (Ib), Formula (II), or Formula (III), or a pharmaceutically acceptable salt thereof. Compounds that bind to the hERG channel protein (competitors) are identified by their ability to displace the tracer which results in a lower fluorescence polarization.
The Predictor hERG assay kit (Invitrogen), containing membrane preparations from Chinese hamster ovary cells stably transfected with hERG potassium channel and a high-affinity red fluorescent hERG channel ligand (tracer), was used for the determination of hERG channel affinity binding of the test compounds in Table 2. Compounds that bind to the hERG channel protein (competitors) were identified by their ability to displace the tracer, resulting in a lower fluorescence polarization. The final concentration of DMSO in each well was maintained at 1%. The assays were performed according to the manufacturer's protocol (Invitrogen).

SOD2 [2] = assay: Modulation of SOD2 activity in AML-12 cells; type: cell-based, mouse; conditions: 24 hours
Experimental: Primary hepatocytes or AML-12 cells are lysed and total protein concentration is determined using the Bradford assay. SOD2 activity is determined at indicated times after treatment with a compound of Formula (I), Formula (Ia), Formula (Ib), Formula (II), or Formula (III), or a pharmaceutically acceptable salt thereof, using a SOD Assay Kit. Absorbance is determined and results are expressed in U/ml/mg of protein according to the standard curve and measured protein concentration. […]
Primary hepatocytes or AML-12 cells were then lysed in a 20 mM HEPES buffer (Gibco), pH 7.2, containing 1 mM EGTA (Sigma), 210 mM mannitol (Sigma), and 70 mM sucrose (AMRESCO). Total protein concentration was determined using the Bradford assay (BioRad). SOD-2 activity was determined at indicated times after ACMSD inhibitor treatment by the SOD Assay Kit (Cayman Chemical) according to the manufacturer's instructions. […] Absorbance was determined with a Victor X4 multi-label plate reader (Perkin-Elmer) at 450 nm. Results are expressed in U/ml/mg of protein according to the standard curve and measured protein concentration.

SOD2 [3] = assay: Modulation of SOD2 activity in murine primary hepatocytes; type: cell-based, mouse
Experimental: Primary hepatocytes or AML-12 cells are lysed and total protein concentration is determined using the Bradford assay. SOD2 activity is determined at indicated times after treatment with a compound of Formula (I), Formula (Ia), Formula (Ib), Formula (II), or Formula (III), or a pharmaceutically acceptable salt thereof, using a SOD Assay Kit. Absorbance is determined and results are expressed in U/ml/mg of protein according to the standard curve and measured protein concentration.
Primary hepatocytes were prepared from 8-12-week-old C57BL/6J mice by collagenase perfusion method. Mouse livers were perfused with Hank's balanced salt solution (HBSS, KCl, 5.4 mM; KH2PO4, 0.45 mM; NaCl, 138 mM; NaHCO3, 4.2 mM; Na2HPO4, 0.34 mM; glucose, 5.5 mM; […]; EGTA, 50 mM; CaCl2, 50 mM; pH 7.4). Livers were then washed at a rate of 5 ml/min through the portal vein. After washing, livers were perfused with collagenase (0.025%) solution. Cell viability was assessed by the trypan blue method. Isolated primary hepatocytes were plated with DMEM medium (Gibco) including 10% FCS, 10 units per ml penicillin and HEPES for buffering. The cells were maintained in culture at 37° C. in a humidified atmosphere of 5% CO2/95% air. After 6-8 hrs of attachment, this medium was replaced with media containing different concentrations of an ACMSD inhibitor (i.e., Compound 1 or Compound 17) or with the corresponding concentration of DMSO (as a control). Primary hepatocytes were harvested about 24 hrs later if not indicated differently.
Primary hepatocytes or AML-12 cells were then lysed in a 20 mM HEPES buffer (Gibco), pH 7.2, containing 1 mM EGTA (Sigma), 210 mM mannitol (Sigma), and 70 mM sucrose (AMRESCO). Total protein concentration was determined using the Bradford assay (BioRad). SOD-2 activity was determined at indicated times after ACMSD inhibitor treatment by the SOD Assay Kit (Cayman Chemical) according to the manufacturer's instructions. In order to specifically detect the SOD2 activity 2 mM potassium cyanide was added to the assay, which inhibited both Cu/Zn-SOD and extracellular SOD, resulting in the detection of only Mn-SOD (SOD-2) activity. Absorbance was determined with a Victor X4 multi-label plate reader (Perkin-Elmer) at 450 nm. Results are expressed in U/ml/mg of protein according to the standard curve and measured protein concentration.

[4] = tested on: murine primary hepatocytes; assay: NAD+ content in murine primary hepatocytes (HPLC, mass-spectrometry); type: cell-based, mouse; conditions: 24 hours
[5] = tested on: SIRT1-regulated genes (Pgc1a, Sod1, Sod2); assay: RT-qPCR analysis of SIRT1-regulated genes in primary murine hepatocytes; type: cell-based; conditions: primary mouse hepatocytes; 24 hrs; 5 nM-500 nM range
Experimental: Cells (AML-12, Hepa-1.6, HEK-293, primary human and murine hepatocytes) are treated with different concentrations of a compound of Formula (I), Formula (Ia), Formula (Ib), Formula (II), or Formula (III), or a pharmaceutically acceptable salt thereof and the gene expression of ACMSD, Pgc1a, Sod1, and Sod2 (MnSOD) is determined using RT-qPCR. Total RNA is extracted from cells and the extracted RNA is treated with DNase and used for reverse transcription (RT).
Gene expression of ACMSD and genes known to be regulated by SIRT1, (an enzyme that is strictly NAD^+ dependent) such as Pgc1a, Sod1, Sod2 (MnSOD), were analysed in AML-12 cells, Hepa-1.6 cells and primary murine hepatocytes treated with Compound 1 or 17.
Cells (AML-12, Hepa-1.6, HEK-293, primary human and murine hepatocytes) were treated with different concentrations of Compound 1 or Compound 17. Total RNA was extracted from cells using TRIzol (Invitrogen) according to the manufacturer's instructions. The RNA was treated with DNase, and 2 μg of RNA was used for reverse transcription (RT). 50× diluted cDNA was used for RT-quantitative PCR (RT-qPCR) reactions. The RT-qPCR reactions were performed using the Light-Cycler system (Roche Applied Science) and a qPCR Supermix (QIAGEN) with the indicated primers. The average of at least three technical repeats was used for each biological data point.

FoxO1 = FoxO1 phosphorylation levels in AML-12 cells (western blot); type: cell-based, mouse; conditions: 24 hours, FIG. 6
Experimental: AML-12 cells are treated with different concentrations of a compound of Formula (I), Formula (Ia), Formula (Ib), Formula (II), or Formula (III), or a pharmaceutically acceptable salt thereof. Cells are then lysed, and analyzed by SDS-PAGE/western blot. Blocking and antibody incubations are then done and each protein present is detected with its specific antibody.
AML-12 cells were treated with different concentrations of Compound 1 or Compound 17 for 24 hours. Cells were then lysed in lysis buffer (50 mM Tris, 150 mM KCl, EDTA 1 mM, NP40 1%) containing protease and phosphatase inhibitors, and analyzed by SDS-PAGE/western blot. Blocking and antibody incubations were done in 5% milk. Each protein present was detected with its specific antibody. Tubulin antibody was obtained from Sigma Inc, FoxO1 and phopho-FoxO1 (Ser256) antibodies were obtained from Cell Signaling. Antibody detection reactions were developed by enhanced chemiluminescence (Advansta, Calif., USA) using x-ray films.

Caspase 3/7 = assay: Modulation of caspase 3/7 activity in MDCK cells injured with cisplatin; type: cell-based
Experimental: MDCK cells are cultured in base medium to a final concentration of 10%. Cells are plated into 96 wells and 24 hours after cell plating the medium is changed with fresh medium supplemented with 1% FBS. Cisplatin is then used to induce cell injury. Different concentrations of Formula (I), Formula (Ia), Formula (Ib), Formula (II), or Formula (III), or a pharmaceutically acceptable salt thereof (in DMSO) are added in combination with cisplatin or prior to adding cisplatin. Caspase 3/7 activity (Promega) is determined according to standard procedures using a luminescent signal readout on a plate reader. Each experiment/condition is performed in triplicate. Caspase activity is analyzed as percentage effect normalized to the cisplatin alone and vehicle treated cells.
MDCK cells (MDCK (NBL-2) ATCC® CCL-34™) were cultured in base medium ATCC-formulated Eagle's Minimum Essential Medium, Catalog No. 30-2003 with fetal bovine serum (FBS) to a final concentration of 10%. […]
Caspase 3/7 activity (Promega) was determined according to standard procedures using a luminescent signal readout on a Victor V plate reader (PerkinElmer). […]
Caspase activity was analyzed as percentage effect normalized to the cisplatin alone (100%) and vehicle treated cells as 0% of caspase activity. Data were analyzed by GraphPad Software. […]

hERG potassium channel, sequence (Q12809 whole entry): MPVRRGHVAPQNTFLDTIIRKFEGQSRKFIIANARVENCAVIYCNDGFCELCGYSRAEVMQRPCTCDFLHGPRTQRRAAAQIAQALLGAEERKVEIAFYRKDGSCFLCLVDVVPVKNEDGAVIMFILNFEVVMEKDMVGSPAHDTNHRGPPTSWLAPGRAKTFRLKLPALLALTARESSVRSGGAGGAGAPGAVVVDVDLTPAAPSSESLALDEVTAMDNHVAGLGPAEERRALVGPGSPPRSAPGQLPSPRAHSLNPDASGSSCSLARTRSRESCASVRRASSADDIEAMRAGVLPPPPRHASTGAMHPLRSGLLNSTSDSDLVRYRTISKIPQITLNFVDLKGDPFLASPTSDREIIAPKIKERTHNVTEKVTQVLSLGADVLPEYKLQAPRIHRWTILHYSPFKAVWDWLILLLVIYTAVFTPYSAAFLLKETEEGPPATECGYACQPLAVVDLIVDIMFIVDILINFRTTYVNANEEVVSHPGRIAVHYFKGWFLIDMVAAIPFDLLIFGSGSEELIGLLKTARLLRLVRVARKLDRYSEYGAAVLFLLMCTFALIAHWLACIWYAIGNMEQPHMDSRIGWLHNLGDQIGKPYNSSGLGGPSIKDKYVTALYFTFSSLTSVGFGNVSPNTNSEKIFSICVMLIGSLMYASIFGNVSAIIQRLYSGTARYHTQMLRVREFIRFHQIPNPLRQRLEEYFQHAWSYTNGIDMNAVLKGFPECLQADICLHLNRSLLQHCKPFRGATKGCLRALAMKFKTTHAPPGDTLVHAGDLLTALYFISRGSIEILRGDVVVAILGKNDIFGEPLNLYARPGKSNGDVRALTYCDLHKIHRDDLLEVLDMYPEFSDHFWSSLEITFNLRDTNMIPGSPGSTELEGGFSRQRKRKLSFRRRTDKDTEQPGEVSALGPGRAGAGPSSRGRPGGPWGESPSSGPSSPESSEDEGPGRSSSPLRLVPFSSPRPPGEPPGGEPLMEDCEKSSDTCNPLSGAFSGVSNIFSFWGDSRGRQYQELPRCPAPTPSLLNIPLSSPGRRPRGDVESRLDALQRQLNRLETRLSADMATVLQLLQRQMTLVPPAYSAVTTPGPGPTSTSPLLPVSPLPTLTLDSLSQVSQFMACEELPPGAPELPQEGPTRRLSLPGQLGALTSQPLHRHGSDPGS

Row | Structure (SMILES) | Cytotoxicity AML-12 (AML-12 cells) | Cytotoxicity Hep-G2 (HePG2 cells) | hERG (hERG potassium channel) | further results
1 | N#Cc1c(-c2cccs2)nc(SCc2cccc(C(=O)O)c2)[nH]c1=O [Compound 4] | Not Toxic | Not Toxic | No Activity | ACMSD-1 inhibition (NAD+ concentration/content) [1]: inhibits ACMSD-1 enzyme at concentrations as low as 0.5 μM and 5 μM
2 | N#Cc1c(-c2nccs2)nc(SCc2cccc(C(=O)O)c2)[nH]c1=O [Compound 5] | Not Toxic | Not Toxic | No Activity | 
3 | N#Cc1c(-c2ccc(Cl)cc2)nc(SCc2ccc(C(=O)O)cc2)[nH]c1=O [Compound 8] | Not Toxic | Not Toxic | No Activity | 
4 | O=C(O)c1cccc(CSc2nc(-c3ccccc3)c(Br)c(=O)[nH]2)c1 [Compound 11] | Not Toxic | Not Toxic | No Activity | 
5 | N#Cc1c(-c2cccs2)nc(SCc2cccc(-c3nn[nH]n3)c2)[nH]c1=O [Compound 17] | Not Toxic | Not Toxic | No Activity | SOD2 activity (SOD2 [2]): induced in a dose-dependent manner; dose at which effects on SOD2 activity were observed (SOD2 [3]; primary hepatocytes): about 5 nM; dose at which the effect on SOD2 activity reached a maximum (SOD2 [3]; primary hepatocytes): about 50 nM; SOD2 activity (SOD2 [3]; primary murine hepatocytes, 24 hours): induced in a dose-dependent manner; intra-cellular NAD+ levels ([4]; 5 nM, 10 nM and 50 nM, FIG. 2): increase in NAD^+ levels; also recorded: significant and dose-dependent increase; concentration with significant effect on NAD+ levels [4]: ≤ 5 nM; Pgc1a mRNA expression levels [5]: dose-dependent increase; Sod2 (MnSOD) mRNA expression levels [5]: dose-dependent increase; FoxO1 phosphorylation at Ser256 (FoxO1): decrease in FoxO1 phosphorylation at Ser256 with increasing dose
6 | N#Cc1c(-c2cccs2)nc(SCc2cccc(CC(=O)O)c2)[nH]c1=O [Compound 18] |  |  |  | activity of caspase 3/7 induced by cisplatin (Caspase 3/7; cisplatin 50 μM for 16 hrs): decreases, in significant manner; concentration with significant decrease of caspase activity vs cisplatin alone (p<0.001) (Caspase 3/7; in combination with cisplatin): 100 µM
7 | N#Cc1c(-c2cccs2)nc(SCc2cccc(-c3noc(=O)[nH]3)c2)[nH]c1=O [Compound 19] | Not Toxic | Not Toxic | No Activity | 

Reference: US9708272B2, “Inhibitors of α-amino-β-carboxymuconic acid semialdehyde decarboxylase” (TES Pharma S.r.l., priority 2014, dated 2017)
